Measured values from US9212135B2, “Phenylthioacetate compounds, compositions and methods of use” (Ardea Biosciences, Inc., priority 2010, dated 2015).

Target: T1, URAT1 (Homo sapiens, UniProt Q96S37)
T1 sequence (Q96S37 1-553): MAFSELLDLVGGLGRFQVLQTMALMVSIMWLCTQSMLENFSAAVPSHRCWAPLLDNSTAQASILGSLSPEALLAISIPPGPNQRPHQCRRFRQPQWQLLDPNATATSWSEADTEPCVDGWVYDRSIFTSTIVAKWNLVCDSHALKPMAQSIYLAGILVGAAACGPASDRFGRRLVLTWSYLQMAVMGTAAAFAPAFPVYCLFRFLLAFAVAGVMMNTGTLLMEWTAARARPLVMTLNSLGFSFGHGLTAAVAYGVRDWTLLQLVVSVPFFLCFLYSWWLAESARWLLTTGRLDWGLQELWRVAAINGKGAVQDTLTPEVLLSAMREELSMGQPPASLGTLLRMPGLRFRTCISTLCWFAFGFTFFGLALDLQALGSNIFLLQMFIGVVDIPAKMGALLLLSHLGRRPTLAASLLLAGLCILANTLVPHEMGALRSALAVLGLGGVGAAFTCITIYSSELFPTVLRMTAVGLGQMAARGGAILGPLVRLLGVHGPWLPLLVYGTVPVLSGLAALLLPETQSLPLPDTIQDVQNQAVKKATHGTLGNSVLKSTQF
Assay: URAT1-model assay (14C-uric acid transport in HEK293/URAT1-model cells)
Conditions: 125 μM 14C-uric acid, 10 minutes at room temperature, read-out: URAT-1 model cell-based C14 EC50 Ranking
Description: HEK293 human embryonic kidney cells (ATCC# CRL-1573) were propagated in EMEM tissue culture medium as described by ATCC in an atmosphere of 5% CO2 and 95% air. Transfections of HEK293 cells with a model URAT1 construct was performed using L2000 transfection reagent (Invitrogen) as described by the manufacturer. After 24 h the transfected cells were split into 10 cm tissue culture plates and grown for 1 day after which the medium was replaced with fresh growth medium containing G418 (Gibco) at 0.5 mg/ml final concentration. Drug-resistant colonies were selected after approximately 8 days and then tested for ^14C-uric acid transport activity. The HEK293/URAT1-model cells are plated on Poly-D-Lysine Coated 96-well Plates at a density of 125,000 cells per well.
Cells were grown overnight (20-26 hours) at 37° C. in an incubator. Plates were allowed to come to room temperature and media was washed out with one wash of 250 μl of Wash Buffer (125 mM Na Gluconate, 10 mM Hepes ph 7.3). Compound or vehicle is added in assay buffer with ^14C-Uric Acid for a final concentration of 125 μM Uric Acid with a specific activity of 54 mCi/mmol. Assay Buffer is 125 mM Sodium Gluconate, 4.8 mM Potassium Gluconate, 1.2 mM Potassium phosphate, monobasic, 1.2 mM magnesium sulfate, 1.3 mM Ca Gluconate, 5.6 mM Glucose, 25 mM HEPES, pH 7.3. Plates were incubated at room temperature for 10 minutes then washed 3 times with 50 μl Wash Buffer and 3 times with 250 μl Wash Buffer. Microscint 20 Scintillation Fluid was added and plates were incubated overnight at room temperature to equilibrate. Plates are then read on the TopCount Plate Reader and an EC50 value generated. (See Enomoto et al, Nature, 2002, 417, 447-451 and Anzai et al, J. Biol. Chem., 2004, 279, 45942-45950.)
Compounds as described herein were tested according to the protocol described above for the URAT-1 model assay; the results are shown in the table below wherein: […]

Structure (SMILES): CC(C)(Sc1ccccc1-c1ccc(C(N)=O)cc1)C(=O)O [Example 1B]
- EC50: 500 to 10000 nM

Structure (SMILES): CC(C)(Sc1ccccc1-c1ccc(CO)cc1)C(=O)O [Example 1C]
- EC50: 50 to 500 nM

Structure (SMILES): N#Cc1ccc(-c2ccccc2SC2(C(=O)O)CCC2)cc1 [Example 1D]
- EC50: 1 to 50 nM

Structure (SMILES): O=C(O)C1(Sc2ccccc2-c2ccc(CO)cc2)CCC1 [Example 1E]
- EC50: 50 to 500 nM

Structure (SMILES): O=C(O)C1(Sc2ccc(F)cc2-c2ccc(C3CC3)cc2)CCC1 [Example 1F]
- EC50: 500 to 10000 nM

Structure (SMILES): N#Cc1ccc(-c2cc(F)ccc2SC2(C(=O)O)CCC2)cc1 [Example 1G]
- EC50: 1 to 50 nM
